Each block holds one compound with its values, some of them ahead of it.
How the values were obtained:
[1] = target: T1, adenosine deaminase (ADA) (Bos taurus, UniProt P56658); assay: biochemical
T1 sequence (P56658 2-363): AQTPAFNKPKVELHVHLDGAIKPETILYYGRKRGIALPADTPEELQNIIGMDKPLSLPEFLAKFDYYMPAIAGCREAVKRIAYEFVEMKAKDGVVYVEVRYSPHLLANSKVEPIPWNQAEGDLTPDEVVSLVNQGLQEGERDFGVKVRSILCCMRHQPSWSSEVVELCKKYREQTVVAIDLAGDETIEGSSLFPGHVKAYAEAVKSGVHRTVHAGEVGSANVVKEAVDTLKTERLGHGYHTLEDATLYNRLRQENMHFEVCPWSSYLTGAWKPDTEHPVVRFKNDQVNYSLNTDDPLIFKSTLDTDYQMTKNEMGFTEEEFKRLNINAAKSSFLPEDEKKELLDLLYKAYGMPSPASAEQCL

[2] = target: T1, adenosine deaminase (ADA); assay: fluorescence assay of tzA to tzI deamination, IC50 with Hill fit; format: biochemical
[3] = target: T1, adenosine deaminase (ADA); assay: as above; format: biochemical; remark: listed apart in the source
[4] = target: T1, adenosine deaminase (ADA); assay: stopped-flow fluorescence kinetics of deamination to tzG; format: biochemical

IC50 [1]: 0.0232 ± 0.0042 µM
Compound: CCCCCC[C@H]([C@H](C)O)n1cnc2c(N)ncnc21 [EHNA]

IC50 [2]: 21 ± 8 µM
Compound: CNc1cc(Cl)nc2c1ncn2[C@@H]1O[C@H](CO)[C@@H](O)[C@H]1O [compound 8, 5-chloro-7-methylamino-1-deaza-purine riboside]

IC50 [3]: 220 ± 70 µM
Compound: OC[C@H]1O[C@@H](n2cnc3c(NCc4ccccc4)cc(Cl)nc32)[C@H](O)[C@@H]1O [compound 11, 5-chloro-7-benzylamino-1-deaza-purine riboside]

Compound: Nc1nc(N)c2nsc([C@@H]3O[C@H](CO)[C@@H](O)[C@H]3O)c2n1 [tz2-AA]
stopped-flow fluorescence kinetics of deamination to tzG [4]: the ^tz2-AA HMM curve showed parabolic behaviour with increasing substrate concentration

From article PMC6467514 (Chembiochem : a European journal of chemical biology, 2019)
